SMILES strings stand for the structures.

Data on 16 molecules can be found in US10208037B2, “Toll-like receptor-7 and -8 modulatory 1H imidazoquinoline derived compounds” (The University of Kansas, priority 2011, dated 2019).

For the first experiment, the target named is T1, TLR7 (Homo sapiens, UniProt Q9NYK1).
T1 construct: expressed in transfected cells; host or cells: HEK293 (HEK-Blue-7 cells)
T1 sequence (Q9NYK1 27-1049): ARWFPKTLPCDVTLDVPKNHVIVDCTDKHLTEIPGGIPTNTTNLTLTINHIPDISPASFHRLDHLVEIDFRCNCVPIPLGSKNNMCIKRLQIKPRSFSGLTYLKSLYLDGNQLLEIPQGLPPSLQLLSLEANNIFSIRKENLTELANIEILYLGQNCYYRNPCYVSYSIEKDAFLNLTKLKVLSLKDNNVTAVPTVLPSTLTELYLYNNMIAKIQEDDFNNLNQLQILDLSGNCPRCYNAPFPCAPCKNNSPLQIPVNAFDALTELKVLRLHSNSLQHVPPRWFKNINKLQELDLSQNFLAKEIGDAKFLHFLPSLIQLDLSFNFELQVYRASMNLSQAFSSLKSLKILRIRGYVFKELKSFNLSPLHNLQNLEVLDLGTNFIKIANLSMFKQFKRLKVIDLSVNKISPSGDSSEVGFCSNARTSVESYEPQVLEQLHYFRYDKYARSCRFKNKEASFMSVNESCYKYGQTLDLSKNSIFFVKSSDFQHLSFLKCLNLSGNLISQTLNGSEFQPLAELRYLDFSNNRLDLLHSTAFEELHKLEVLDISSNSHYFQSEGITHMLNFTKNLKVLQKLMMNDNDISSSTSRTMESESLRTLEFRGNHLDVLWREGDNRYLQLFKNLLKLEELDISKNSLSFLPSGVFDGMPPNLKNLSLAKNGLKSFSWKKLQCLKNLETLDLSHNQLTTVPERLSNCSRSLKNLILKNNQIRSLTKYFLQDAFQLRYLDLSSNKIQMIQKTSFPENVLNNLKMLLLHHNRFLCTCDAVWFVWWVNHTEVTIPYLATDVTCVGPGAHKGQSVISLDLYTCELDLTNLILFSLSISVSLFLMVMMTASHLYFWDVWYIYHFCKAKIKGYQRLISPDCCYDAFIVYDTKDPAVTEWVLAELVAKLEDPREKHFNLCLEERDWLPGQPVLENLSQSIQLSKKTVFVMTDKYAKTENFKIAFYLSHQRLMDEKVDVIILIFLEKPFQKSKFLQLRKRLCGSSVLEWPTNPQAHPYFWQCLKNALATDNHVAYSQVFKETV
In words: TLR7 reporter gene assay (NF-κB induction, HEK-Blue-7 cells), agonism. Type of experiment: cell-based.
Conditions: not given
From the text:
NF-κB induction: The induction of NF-κB was quantified using HEK-Blue-7 cells and HEK-Blue-8 cells as previously described by us.^8,24 HEK293 cells were stably transfected with human TLR7 (or human TLR8), MD2, and secreted alkaline phosphatase (sAP), and were maintained in HEK-Blue™ Selection medium containing zeocin and normocin. Stable expression of secreted alkaline phosphatase (sAP) under control of NF-κB/AP-1 promoters is inducible by the TLR7 (or TLR8) agonists, and extracellular sAP in the supernatant is proportional to NF-κB induction. HEK-Blue cells were incubated at a density of […] in a volume of 80 μL/well, in 384-well, flat-bottomed, cell culture-treated microtiter plates until confluency was achieved, and subsequently graded concentrations of stimuli. sAP was assayed spectrophotometrically using an alkaline phosphatase-specific chromogen (present in HEK-detection medium as supplied by the vendor) at 620 nm.
The induction of NF-κB was quantified using HEK-Blue-3, HEK-Blue-7 and HEK-Blue-8 cells as previously described by us.^8,24,51 HEK293 cells were stably transfected with human TLR3 (or human TLR7 or human TLR8), MD2, and secreted alkaline phosphatase (sAP), and were maintained in HEK-Blue™ Selection medium containing zeocin and normocin. Stable expression of secreted alkaline phosphatase (sAP) under control of NF-κB/AP-1 promoters is inducible by the TLR3 (or TLR7 or TLR8) agonists, and extracellular sAP in the supernatant is proportional to NF-κB induction. HEK-Blue cells were incubated at a density of ˜10^5 cells/ml in a volume of 80 μl/well, in 384-well, flat-bottomed, cell culture-treated microtiter plates until confluency was achieved, and subsequently graded concentrations of stimuli. sAP was assayed spectrophotometrically using an alkaline phosphatase-specific chromogen (present in HEK-detection medium as supplied by the vendor) at 620 nm.
On to `CCCCc1nc2c(N)nc3ccccc3c2n1Cc1cccc2ccccc12` [Compound 6a], for which the “TLR7-agonistic activity (in words)” value was “inactive”.

Consider `CCCCc1nc2c(N)nc3ccccc3c2n1Cc1ccc(CNC(=S)Nc2cccc(-c3c4ccc(=O)cc-4oc4cc(O)ccc34)c2C(=O)O)cc1` [Compound 26, 2-(3-(4-((4-Amino-2-butyl-1H-imidazo [4,5-c]quinolin-1-yl)methyl)benzyl)thioureido)-6-(6-hydroxy-3-oxo-3H-xanthen-9-yl)benzoic Acid], for which the “TLR7-agonistic activity (in words)” value is given as “retain TLR7 agonistic activity”.

On to `CCCCc1nc2c(N)nc3ccccc3c2n1Cc1ccc(CNC(=S)Nc2ccc(-c3c4ccc(=[N+](CC)CC)cc-4oc4cc(N(CC)CC)ccc34)c(C(=O)O)c2)cc1` [Compound 27, N-(9-(4-(3-(4-((4-amino-2-butyl-1H-imidazo[4,5-c]quinolin-1-yl)methyl)benzyl)thioureido)-2-carboxyphenyl)-6-(diethylamino)-3H-xanthen-3-ylidene)-N-ethylethanaminium], for which the “TLR7-agonistic activity (in words)” value is recorded as “retain TLR7 agonistic activity”.

Staying with this experiment, now noted: Table 1; ND = not detected; read-out: TLR7 Agonism.
For `CCCCc1nc2c(NCCCCNc3nc4ccccc4c4c3nc(CCCC)n4Cc3ccccc3)nc3ccccc3c2n1Cc1ccccc1` [Compound 51a, N^1,N^4-bis(1-benzyl-2-butyl-1H-imidazo[4,5-c]quinolin-4-yl)butane-1,4-diamine], the EC50 was determined as 2050 nM.

Turning to `CCCCc1nc2c(NCCCCCCCCNc3nc4ccccc4c4c3nc(CCCC)n4Cc3ccccc3)nc3ccccc3c2n1Cc1ccccc1` [Compound 51b, N^1,N-bis(1-benzyl-2-butyl-1H-imidazo[4,5-c]quinolin-4-yl)octane-1,8-diamine], the EC50 was 560 nM.

As to `CCCCc1nc2c(NCCCCCCCCCCNc3nc4ccccc4c4c3nc(CCCC)n4Cc3ccccc3)nc3ccccc3c2n1Cc1ccccc1` [Compound 51c, N^1,N^10-bis(1-benzyl-2-butyl-1H-imidazo[4,5-c]quinolin-4-yl)decane-1,10-diamine], the EC50 is 3000 nM.

Turning to `CCCCc1nc2c(NCCCCCCCCCCCCNc3nc4ccccc4c4c3nc(CCCC)n4Cc3ccccc3)nc3ccccc3c2n1Cc1ccccc1` [Compound 51d, N^1,N^12-bis(1-benzyl-2-butyl-1H-imidazo[4,5-c]quinolin-4-yl)dodecane-1,12-diamine], the EC50 amounted to 1420 nM.

Take `CCCCc1nc2c(N)nc3ccccc3c2n1Cc1ccc(CNC(=O)CCCCC(=O)NCc2ccc(Cn3c(CCCC)nc4c(N)nc5ccccc5c43)cc2)cc1` [Compound 52a, N^1,N^6-bis(4-((4-amino-2-butyl-1H-imidazo[4,5-c]quinolin-1-yl)methyl)benzyl)adipamide]: the EC50 is 110 nM.

Take `CCCCc1nc2c(N)nc3ccccc3c2n1Cc1ccc(CNC(=O)CCCCCCC(=O)NCc2ccc(Cn3c(CCCC)nc4c(N)nc5ccccc5c43)cc2)cc1` [Compound 52b, N^1,N-bis(4-((4-amino-2-butyl-1H-imidazo[4,5-c]quinolin-1-yl)methyl)benzyl)octanediamide]: the EC50 amounted to 240 nM.

Consider `CCCCc1nc2c(N)nc3ccc([N+](=O)[O-])cc3c2n1Cc1ccc(CN)cc1` [Compound 53a, 1-(4-(aminomethyl)benzyl)-2-butyl-8-nitro-1H-imidazo[4,5-c]quinolin-4-amine], for which the EC50 came to 560 nM.

Take `CCCCc1nc2c(N)nc3ccc(N)cc3c2n1Cc1ccc(CN)cc1` [Compound 54a, 1-(4-(aminomethyl)benzyl)-2-butyl-1H-imidazo[4,5-c]quinoline-4,8-diamine]: the EC50 is 450 nM.

`CCCCc1nc2c(N)nc3ccc(NC(=O)CCCCC(=O)Nc4ccc5nc(N)c6nc(CCCC)n(Cc7ccc(CN)cc7)c6c5c4)cc3c2n1Cc1ccc(CN)cc1` [Compound 55a, N^1,N^6-bis(4-amino-1-(4-(aminomethyl)benzyl)-2-butyl-1H-imidazo[4,5-c]quinolin-8-yl) adipamide]: the EC50 amounted to 7240 nM.

`CCCCc1nc2c(N)nc3ccc(NC(=O)CCCCCCC(=O)Nc4ccc5nc(N)c6nc(CCCC)n(Cc7ccc(CN)cc7)c6c5c4)cc3c2n1Cc1ccc(CN)cc1` [Compound 55b, N^1,N^8-bis(4-amino-1-(4-(aminomethyl)benzyl)-2-butyl-1H-imidazo[4,5-c]quinolin-8-yl)octanediamide]: the EC50 was 4020 nM.

Still in this experiment, the particulars now being: read-out: EC50 (agonistic activity).
`CCCCc1nc2c(N)nc3ccccc3c2n1Cc1ccc(-c2ccccc2)cc1` [Compound 6b, 1-(Biphenyl-4-ylmethyl)-2-butyl-1H-imidazo[4,5-c]quinolin-4-amine]: the EC50 worked out at 396 nM.

On to `CCCCc1nc2c(N)nc3ccccc3c2n1Cc1ccc(CNC(=S)NCC(=O)NCC(=O)NCC(=O)OC)cc1` [Compound 29, Methyl 1-(4-((4-amino-2-butyl-1H-imidazo[4,5-c]quinolin-1-yl)methyl)phenyl)-6,9-dioxo-3-thioxo-2,4,7,10-tetraazadodecan-12-oate], for which the EC50 is 269 nM.

With `CCCCc1nc2c(N)nc3ccccc3c2n1Cc1ccc(CNC(=O)CCN2C(=O)CC(SC[C@@H](NC(=O)CC[C@@H](N)C(=O)OC)C(=O)NCC(=O)OC)C2=O)cc1` (stereo partly drawn) [Compound 30b, (2R)-methyl 2-amino-5-((2S)-3-(1-(3-(4-((4-amino-2-butyl-1H-imidazo[4,5-c]quinolin-1-yl)methyl)benzylamino)-3-oxopropyl)-2,5-dioxopyrrolidin-3-ylthio)-1-(2-methoxy-2-oxoethylamino)-1-oxopropan-2-ylamino)-5-oxopentanoate], the EC50 was 2200 nM.
